Experimental data: paper PMC6327999, “Hydroxyl-substituted double Schiff-base condensed 4-piperidone/cyclohexanones as potential anticancer agents with biological evaluation” (Journal of Enzyme Inhibition and Medicinal Chemistry, 2019)

Each molecule was assayed on human cervical carcinoma cells (HeLa) (assay: Cytotoxicity, MTT assay, HeLa). Details: Homo sapiens, HeLa; MTT, 24 hours.
Type: cell-based
Description: (§1) Compounds 2a–d, 3a–e, 4a–e, 5a–d, and 6a–c were screened against human neoplastic cell lines such as human lung carcinoma cells (A549), human gastric adenocarcinoma cells (SGC7901), human cervical carcinoma cells (HeLa), human liver hepatocellular carcinoma cell line (Hepg2), human chronic myelogenous leukemia cell line (K562), human acute mononuclear granulocyte leukemia (THP-1), human normal heptical cell line (LO2) (Table 1) using modified MTT assay (3-(4,5-dimethyl-2-thiazolyl)-2,5-diphenyl-2-H-tetrazolium bromide, MTT, Dojindo Laboratories, Tokyo, Japan). All cell lines were maintained at 37 °C in a humidified 5% CO2 and 95% air atmosphere. The HePG2 cell lines were cultured in DMEM containing 10% fetal bovine serum. Other cell lines were grown in medium 1640 and supplemented with 10% fetal bovine serum. […] Controls were prepared with 0.1% DMSO (v/v) only. The cells were seeded in a 96-well plate in 200 µL medium per well at a density of 1 × 10^4 cells/well for 24 hours. The cells were treated with serial concentrations of compound and incubated for 24 hours. Cells with only culture media were used as control. After the media was removed, 20 µL of MTT (5 mg/mL) was added then the plates were incubated for 4 hours at 37 °C in cell culture incubator. The MTT containing media were removed and then 150 µL of DMSO was added to dissolve the dark-blue formazan crystals. The optical density (OD) was measured by a multi-well plate reader (TECAN, Männedorf, Switzerland) at 570 nm. The results are expressed as a decrease in the cell viability (%) in comparison to untreated controls. The concentration of each compound was examined in triplicate, and the IC50 values are expressed in Table 1. The concentrations of the compounds were 50, 20, 10, 5, 2.5, 1, 0.5, 0.1, 0.05 and 0.01 µg/mL. Doxorubicin (DOX) and Curcumin were used as positive controls. […] The concentrations of curcumin used were 100, 50, 25, 12.5, 6.25, 3.125, 1, 0.5 and 0.1 µg/mL.

Structure (SMILES)	IC50 [µM]
O=C1/C(=C/c2cccc(/N=C/c3cc(F)ccc3O)c2)CCC/C1=C\c1cccc(/N=C/c2cc(F)ccc2O)c1 [3b]	8.9 ± 0.2
CN1C/C(=C\c2cccc(N)c2)C(=O)/C(=C/c2cccc(N)c2)C1 [2b, (3E,5E)-3,5-bis(3-aminobenzylidene)-1-methylpiperidin-4-one]	4.4 ± 0.1
Nc1ccc(F)c(/C=C2\CNC/C(=C\c3cc(N)ccc3F)C2=O)c1 [2c]	2.2 ± 0.1

Same assay, conditions: quotient of the IC50 values towards nonmalignant LO2 cells

Structure (SMILES)	HeLa SI
O=C1/C(=C/c2cccc(/N=C/c3cc(F)ccc3O)c2)CCC/C1=C\c1cccc(/N=C/c2cc(F)ccc2O)c1 [3b]	1.9
CN1C/C(=C\c2cccc(N)c2)C(=O)/C(=C/c2cccc(N)c2)C1 [2b, (3E,5E)-3,5-bis(3-aminobenzylidene)-1-methylpiperidin-4-one]	3.8
Nc1ccc(F)c(/C=C2\CNC/C(=C\c3cc(N)ccc3F)C2=O)c1 [2c]	8.7

The molecules below were run on human gastric adenocarcinoma cells (SGC7901) (assay: Cytotoxicity, MTT assay, SGC7901). Details: Homo sapiens, SGC-7901; MTT, 24 hours.
Type: cell-based
Description: as §1

Structure (SMILES)	IC50 [µM]
O=C1/C(=C/c2cccc(/N=C/c3cc(F)ccc3O)c2)CCC/C1=C\c1cccc(/N=C/c2cc(F)ccc2O)c1 [3b]	2.7 ± 0.6
CN1C/C(=C\c2cccc(N)c2)C(=O)/C(=C/c2cccc(N)c2)C1 [2b, (3E,5E)-3,5-bis(3-aminobenzylidene)-1-methylpiperidin-4-one]	4.2 ± 0.3
Nc1ccc(F)c(/C=C2\CNC/C(=C\c3cc(N)ccc3F)C2=O)c1 [2c]	2.5 ± 0.8

Same assay, conditions: quotient of the IC50 values towards nonmalignant LO2 cells

Structure (SMILES)	SGC7901 SI
O=C1/C(=C/c2cccc(/N=C/c3cc(F)ccc3O)c2)CCC/C1=C\c1cccc(/N=C/c2cc(F)ccc2O)c1 [3b]	6.4
CN1C/C(=C\c2cccc(N)c2)C(=O)/C(=C/c2cccc(N)c2)C1 [2b, (3E,5E)-3,5-bis(3-aminobenzylidene)-1-methylpiperidin-4-one]	4.0
Nc1ccc(F)c(/C=C2\CNC/C(=C\c3cc(N)ccc3F)C2=O)c1 [2c]	7.4

These molecules were tested on human lung carcinoma cells (A549) (assay: Cytotoxicity, MTT assay, A549). Details: Homo sapiens, A549; MTT, 24 hours.
Type: cell-based
Description: as §1

Structure (SMILES)	IC50 [µM]
O=C1/C(=C/c2cccc(/N=C/c3cc(F)ccc3O)c2)CCC/C1=C\c1cccc(/N=C/c2cc(F)ccc2O)c1 [3b]	6.1 ± 0.4
CN1C/C(=C\c2cccc(N)c2)C(=O)/C(=C/c2cccc(N)c2)C1 [2b, (3E,5E)-3,5-bis(3-aminobenzylidene)-1-methylpiperidin-4-one]	6.5 ± 0.1
Nc1ccc(F)c(/C=C2\CNC/C(=C\c3cc(N)ccc3F)C2=O)c1 [2c]	3.4 ± 1.2

Same assay, conditions: quotient of the IC50 values towards nonmalignant LO2 cells

Structure (SMILES)	A549 SI
O=C1/C(=C/c2cccc(/N=C/c3cc(F)ccc3O)c2)CCC/C1=C\c1cccc(/N=C/c2cc(F)ccc2O)c1 [3b]	2.8
CN1C/C(=C\c2cccc(N)c2)C(=O)/C(=C/c2cccc(N)c2)C1 [2b, (3E,5E)-3,5-bis(3-aminobenzylidene)-1-methylpiperidin-4-one]	2.6
Nc1ccc(F)c(/C=C2\CNC/C(=C\c3cc(N)ccc3F)C2=O)c1 [2c]	5.5

The molecules below were run on human normal heptical cell line (LO2) (assay: Cytotoxicity, MTT assay, non-malignant LO2). Details: 24 hours, non-malignant cells.
Type: cell-based
Description: as §1

Structure (SMILES)	IC50 [µM]
O=C1/C(=C/c2cccc(/N=C/c3cc(F)ccc3O)c2)CCC/C1=C\c1cccc(/N=C/c2cc(F)ccc2O)c1 [3b]	17.1 ± 0.1
CN1C/C(=C\c2cccc(N)c2)C(=O)/C(=C/c2cccc(N)c2)C1 [2b, (3E,5E)-3,5-bis(3-aminobenzylidene)-1-methylpiperidin-4-one]	16.9 ± 0.2
Nc1ccc(F)c(/C=C2\CNC/C(=C\c3cc(N)ccc3F)C2=O)c1 [2c]	18.8 ± 1.4

Each molecule was assayed on human acute mononuclear granulocyte leukemia (THP-1) (assay: Cytotoxicity, MTT assay, THP-1). Details: Homo sapiens, THP-1; MTT, 24 hours.
Type: cell-based
Description: as §1

Structure (SMILES)	IC50 [µM]
O=C1/C(=C/c2cccc(/N=C/c3cc(F)ccc3O)c2)CCC/C1=C\c1cccc(/N=C/c2cc(F)ccc2O)c1 [3b]	1.6 ± 0.1
CN1C/C(=C\c2cccc(N)c2)C(=O)/C(=C/c2cccc(N)c2)C1 [2b, (3E,5E)-3,5-bis(3-aminobenzylidene)-1-methylpiperidin-4-one]	1.5 ± 0.1
Nc1ccc(F)c(/C=C2\CNC/C(=C\c3cc(N)ccc3F)C2=O)c1 [2c]	1.4 ± 0.2

Same assay, conditions: quotient of the IC50 values towards nonmalignant LO2 cells

Structure (SMILES)	THP-1 SI
O=C1/C(=C/c2cccc(/N=C/c3cc(F)ccc3O)c2)CCC/C1=C\c1cccc(/N=C/c2cc(F)ccc2O)c1 [3b]	10.5
CN1C/C(=C\c2cccc(N)c2)C(=O)/C(=C/c2cccc(N)c2)C1 [2b, (3E,5E)-3,5-bis(3-aminobenzylidene)-1-methylpiperidin-4-one]	11.5
Nc1ccc(F)c(/C=C2\CNC/C(=C\c3cc(N)ccc3F)C2=O)c1 [2c]	13.9

These molecules were tested on human chronic myelogenous leukemia cell line (K562) (assay: Cytotoxicity, MTT assay, K562). Details: Homo sapiens, K562; MTT, 24 hours.
Type: cell-based
Description: as §1

Structure (SMILES)	IC50 [µM]
O=C1/C(=C/c2cccc(/N=C/c3cc(F)ccc3O)c2)CCC/C1=C\c1cccc(/N=C/c2cc(F)ccc2O)c1 [3b]	3.4 ± 0.01
CN1C/C(=C\c2cccc(N)c2)C(=O)/C(=C/c2cccc(N)c2)C1 [2b, (3E,5E)-3,5-bis(3-aminobenzylidene)-1-methylpiperidin-4-one]	4.3 ± 0.1
Nc1ccc(F)c(/C=C2\CNC/C(=C\c3cc(N)ccc3F)C2=O)c1 [2c]	2 ± 0.1

Same assay, conditions: quotient of the IC50 values towards nonmalignant LO2 cells

Structure (SMILES)	K562 SI
O=C1/C(=C/c2cccc(/N=C/c3cc(F)ccc3O)c2)CCC/C1=C\c1cccc(/N=C/c2cc(F)ccc2O)c1 [3b]	5.0
CN1C/C(=C\c2cccc(N)c2)C(=O)/C(=C/c2cccc(N)c2)C1 [2b, (3E,5E)-3,5-bis(3-aminobenzylidene)-1-methylpiperidin-4-one]	3.9
Nc1ccc(F)c(/C=C2\CNC/C(=C\c3cc(N)ccc3F)C2=O)c1 [2c]	9.3

Each molecule was assayed on human liver hepatocellular carcinoma cell line (Hepg2) (assay: Cytotoxicity, MTT assay, HePG2). Details: Homo sapiens, HepG2; MTT, 24 hours.
Type: cell-based
Description: as §1, with “µg/mL.” for “µg/mL. Doxorubicin (DOX) and Curcumin were used as positive controls.”

Structure (SMILES)	IC50 [µM]
O=C1/C(=C/c2cccc(/N=C/c3cc(F)ccc3O)c2)CCC/C1=C\c1cccc(/N=C/c2cc(F)ccc2O)c1 [3b]	2.8 ± 0.1
CN1C/C(=C\c2cccc(N)c2)C(=O)/C(=C/c2cccc(N)c2)C1 [2b, (3E,5E)-3,5-bis(3-aminobenzylidene)-1-methylpiperidin-4-one]	3.1 ± 0.2
Nc1ccc(F)c(/C=C2\CNC/C(=C\c3cc(N)ccc3F)C2=O)c1 [2c]	5.8 ± 0.2

Same assay, conditions: quotient of the IC50 values towards nonmalignant LO2 cells

Structure (SMILES)	HePG2 SI
O=C1/C(=C/c2cccc(/N=C/c3cc(F)ccc3O)c2)CCC/C1=C\c1cccc(/N=C/c2cc(F)ccc2O)c1 [3b]	6.1
CN1C/C(=C\c2cccc(N)c2)C(=O)/C(=C/c2cccc(N)c2)C1 [2b, (3E,5E)-3,5-bis(3-aminobenzylidene)-1-methylpiperidin-4-one]	5.4
Nc1ccc(F)c(/C=C2\CNC/C(=C\c3cc(N)ccc3F)C2=O)c1 [2c]	3.2

These molecules were tested on human carcinoma cell lines A549, SGC7901, HePG2, HeLa, K562, THP-1 (assay: Cytotoxicity, MTT assay, panel of human carcinoma cell lines (average / overall)). Details: Homo sapiens; average over the six carcinoma cell lines; read-out: Ave IC50.
Type: cell-based
Description: as §1
The cytotoxicity activities against human carcinoma cell lines A549, SGC7901, HePG2, HeLa, K562, THP-1 and cytotoxicity toward LO2 cell lines were evaluated by MTT method. DOX and curcumin were used as positive control. The selectivity index (SI) is the quotient of the IC50 values towards nonmalignant LO2 cells. […] Especially for 4a–e, 5a–d, and 6a–c, this ratio can reach about 92%.

Structure (SMILES)	IC50 [µM]
O=C1/C(=C/c2cccc(/N=C/c3cc(F)ccc3O)c2)CCC/C1=C\c1cccc(/N=C/c2cc(F)ccc2O)c1 [3b]	4.3
CN1C/C(=C\c2cccc(N)c2)C(=O)/C(=C/c2cccc(N)c2)C1 [2b, (3E,5E)-3,5-bis(3-aminobenzylidene)-1-methylpiperidin-4-one]	4
Nc1ccc(F)c(/C=C2\CNC/C(=C\c3cc(N)ccc3F)C2=O)c1 [2c]	2.9

Same assay, conditions: average over the six carcinoma cell lines

Structure (SMILES)	Ave SI
O=C1/C(=C/c2cccc(/N=C/c3cc(F)ccc3O)c2)CCC/C1=C\c1cccc(/N=C/c2cc(F)ccc2O)c1 [3b]	5.5
CN1C/C(=C\c2cccc(N)c2)C(=O)/C(=C/c2cccc(N)c2)C1 [2b, (3E,5E)-3,5-bis(3-aminobenzylidene)-1-methylpiperidin-4-one]	5.2
Nc1ccc(F)c(/C=C2\CNC/C(=C\c3cc(N)ccc3F)C2=O)c1 [2c]	8.0
